Laboratory results from paper PMC7669869, “AdipoR1/AdipoR2 dual agonist recovers nonalcoholic steatohepatitis and related fibrosis via endoplasmic reticulum-mitochondria axis” (Nature Communications, 2020).
Several values for one entry are separate records, joined by “and”; a condition that tells them apart may be missing. Equal entries are not always repeated. Where two headings read alike, the source gives them in different places. Blank lines part the entries; values can stand above or below the compound they belong to. Non-standard residues stand in square brackets, D forms with d. Residues, ends and D or L forms follow the SMILES beside them. No end group written: not given here. Nva = CCC[C@H](N)C(=O)O

Columns and labels:
[1] = Serum stability assay (RP-HPLC); format: in vitro ADME; conditions: for Fraction of peptide remaining, Supplementary Figure 5: mouse serum, time 0 (unit not given); for remaining at 0.5 h, 5 mM: time 0.5 (unit inferred); for remaining at 1 h, 5 mM: time 1 (unit inferred); for remaining at 1.5 h, 5 mM: time 1.5 (unit inferred); for remaining at 2 h, 5 mM: time 2 (unit inferred); for remaining at 2.5 h, 5 mM: time 2.5 (unit inferred); for remaining at 4 h, 5 mM: time 4 (unit inferred); for remaining at 6 h, 5 mM: time 6 (unit inferred)
Description: The stability of candidate peptides was investigated following procedure. […] Ice-cold acetonitrile was added to terminate the reaction. Vortex and stand for 1 min, deionized water with 1% TFA was added to the mixture to further terminate the reaction. Mixtures were then centrifuged (13,000g, 10 min) to obtain the supernatant. RP-HPLC-MS was applied to analysis the content of candidate peptides. The serum stability of candidate peptides was represented as the retention rate of each peptide.

[2] = system: AdipoR1 and AdipoR2 on HepG2 and LX2 cells; experiment: Cell confocal imaging, receptor binding of FITC labeled peptide (with AdipoR siRNA); set-up: species or system human; conditions: 37 °C, 2 or 4 h, AdipoR1/AdipoR2 siRNA as control, in words
Description: For in vitro receptor binding assay, 4E4 HepG2 cells or 2E4 LX2 cells were seeded on 35 mm glass bottom dish with 150 μL complete medium. Then cells were incubated with FITC labeled peptide for 4 h. The nuclei were stained with Hoechst 33342 (ThermoFisher, Scientific, USA). After washing with PBS, cells were visualized in a laser confocal microscope (Olympus FV3000, Japan). Cells with suppressed AdipoR1 and AdipoR2 expression with each specific siRNA were used as negative control.
AdipoR1 and AdipoR2 siRNA as well as mock siRNA were chemically synthesized (GenePharma, China) and transfected into 60–70% confluent HepG2 and LX2 cells using Lipofectamine 3000 (ThermoFisher Scientific, USA). Dilution of siRNA and Lipofectamine 3000 reagents as well as the transfection of cells were performed following the manufacturer’s protocol. For HepG2 cell model, 5E5 cells were plated in 6-well plates and transfected with 5 μL of 20 μM stock siRNA. At 48 h following transfection, the cells were processed for 0.25 mM PA and/or 200 μM JT003 treated for another 24 h. BSA was used as the negative control. For LX2 cell model, 2E5 cells were plated in 6-well plates and transfected with 5 μL of 20 μM stock siRNA. At 48 h following transfection, the cells were processed for JT003 or PBS treated for another 48 h. Next, cells were harvested for either western blot or qPCR assay.

HepG2 cells = experiment: PA induced lipid accumulation, Oil Red O staining; format: cell-based, human; conditions: HepG2, 0.25 mM PA + 200 μM peptide, 24 h; in words
Description: Hepatoma carcinoma cell line HepG2 and human hepatic activated stellate cell line LX2 used in this study were purchased from Type Culture Collection of the Chinese Academy of Sciences (Shanghai, China). Cells were cultured in Dulbecco’s modified Eagle’s medium (DMEM) with 10% fetal bovine serum (FBS), supplemented with 1% penicillin–streptomycin (ThermoFisher Scientific, USA) at 37 °C in a humidified atmosphere of 5% CO2. In PA (Sigma, USA) induced lipid accumulation cell model, HepG2 cells were seeded into a 6-well plate at 5E5 cells per well. 0.25 mM PA and/or 200 μM candidate peptides were co-incubated with cells for 24 h. Then Oil Red O staining was performed to evaluate the accumulation of lipid droplets. BSA (Sigma, USA) was used in this experiment as the negative control. For LX2 cells, 2E5 cells were seeded, then the adherent cells were exposed to 200 μM candidate peptides for another 48 h. Next, the cell protein was obtained and western blotting was performed. Candidate peptides were diluted in DMEM in a stock concentration of 1 M.

[3] = Pharmacokinetic assay in SD rats; format: in vivo, rat
Description: Male SpragueDawley (SD) rats were randomly divided into two groups (n = 3 per group) and received a single intravenous dose of JT003 (0.5 mg/kg) or ADP355 (1.0 mg kg^−1) respectively. Blood samples were collected at 5, 15, 30, 45 min and 1, 2, 3 h following the injection, and then were immediately centrifuged (4000g, 10 min, 4 °C) to obtain plasma samples. Plasma concentrations of the two peptides were measured by LC-MS/MS (ThermoFisher Scientific, USA). Pharmacokinetic parameters of JT003 and ADP355 were calculated using non-compartmental analysis in Phoenix WinNonlin (version 8.0, Pharsight, USA). The concentration values less than the LLOQ were set to zero for the analysis.

[4] = system: CCl4 induced liver fibrosis mice; experiment: CCl4 induced liver fibrosis mice: liver appearance, body weight, HE, Sirius red, IHC (αSMA, COL1α1, CD68); format: in vivo, mouse; conditions: CCl4 induced liver fibrosis mice; administration dosages of 0.5 mg kg−1 and 2 mg kg−1; in words
Description: Male mice liver fibrosis was induced by intraperitoneal injection of 20% CCl4 (Sigma, USA) diluted in corn oil (Aladdin, China) every 3 days for 6 weeks (n = 6; 5 ml kg^−1 body weight). Mice injected with equivalent volume of corn oil serves as control group (n = 6). Liver fibrosis mice treated with JT003 for 3 weeks were used to evaluated the pharmacological effects (n = 6; 500 μg kg^−1; daily intraperitoneal injection).
The levels of TG and HYP in liver tissue were detected with certain commercial assay kit (Nanjing Jiancheng Bioengineering Institute, China). Formalin-fixed liver tissues were embedded in paraffin, sectioned into 5 μm slices. After deparaffinization and rehydration of the section slices, they were stained with Haematoxylin and Eosin or Periodic Acid-Schiff. For the detection of liver collagen content, Sirius Red staining for collagen was performed. OCT-embedded frozen liver tissues were sectioned into 12 μm slices, and Oil Red O staining was performed. The cryostat-cut slices were stained with freshly prepared Oil Red O working solution for 7 min Two independent experimenters who were blinded to the treatment evaluated the staining slides and analyzed the score for steatosis, glucogen accumulation and collagen proliferation area.
Paraffin-embedded liver slices were deparaffinized and rehydrated, antigen retrieval was performed under the high pressure and temperature in 0.01 M sodium citrate buffer (pH = 6.0). To quench the endogenous peroxidase activity, the slices were then incubated with 1% hydrogen peroxide in methanol for 10 min in room temperature. Then slices were incubated with corresponding primary antibodies. After washing, HRP-conjugated secondary antibodies specific to the species of the primary antibodies were used. After the section were developed with DAB, hematoxylin staining was performed for cell counting.

[5] = mouse, replicate 1, read-out: Fraction of peptide remaining, Supplementary Figure 5
[6] = mouse, replicate 2, read-out: Fraction of peptide remaining, Supplementary Figure 5
[7] = mouse, replicate 3, read-out: Fraction of peptide remaining, Supplementary Figure 5
[8] = Sprague-Dawley, rat, male SD rats, single iv dose: JT003 0.5 mg/kg, ADP355 1.0 mg/kg, plasma, LC-MS/MS, non-compartmental, Mean ± SD, n = 3-6

- Fraction of peptide remaining, Supplementary Figure 5 ([1]; replicate 1): 0.9901
- Fraction of peptide remaining, Supplementary Figure 5 ([1]; replicate 2): 1.005
- Fraction of peptide remaining, Supplementary Figure 5 ([1]; replicate 3): 0.9939
- remaining at 0.5 h, 5 mM [1, 5]: 96.7%
- remaining at 0.5 h, 5 mM [1, 6]: 98.6%
- remaining at 0.5 h, 5 mM [1, 7]: 94.9%
- remaining at 1 h, 5 mM [1, 5]: 82.5%
- remaining at 1 h, 5 mM [1, 6]: 84%
- remaining at 1 h, 5 mM [1, 7]: 83.1%
- remaining at 1.5 h, 5 mM [1, 5]: 80.8%
- remaining at 1.5 h, 5 mM [1, 6]: 82.6%
- remaining at 1.5 h, 5 mM [1, 7]: 83.7%
- remaining at 2 h, 5 mM [1, 5]: 50.5%
- remaining at 2 h, 5 mM [1, 6]: 53.4%
- remaining at 2 h, 5 mM [1, 7]: 47.2%
- remaining at 2.5 h, 5 mM [1, 5]: 26.1%
- remaining at 2.5 h, 5 mM [1, 6]: 27.2%
- remaining at 2.5 h, 5 mM [1, 7]: 27.2%
- remaining at 3 h, 5 mM ([1]; mouse, time 3 (unit inferred), replicate 1, read-out: Fraction of peptide remaining, Supplementary Figure 5): 29.9%
- remaining at 3.5 h, 5 mM ([1]; mouse, time 3.5 (unit inferred), replicate 1, read-out: Fraction of peptide remaining, Supplementary Figure 5): 29.3%
- remaining at 4 h, 5 mM [1, 5]: 23.9%
- remaining at 4 h, 5 mM [1, 6]: 24.2%
- remaining at 4 h, 5 mM [1, 7]: 23.5%
- remaining at 6 h, 5 mM [1, 5]: 2.28%
- remaining at 6 h, 5 mM [1, 6]: 2.13%
- remaining at 6 h, 5 mM [1, 7]: 2.33%
Compound: PGLYYFD-NH2 (C-terminus assumed) [Pep70]

Compound: CCC[C@H](NC(=O)[C@@H]1CCCN1)C(=O)N[C@@H](CC(C)C)C(=O)N[C@@H](Cc1ccc(O)cc1)C(=O)N[C@@H](CO)C(=O)N[C@@H](Cc1ccccc1)C(=O)N[C@@H](CC(=O)O)C(N)=O [JT006] (H-P[Nva]LYSFD-NH2)
- binding to AdipoRs on the cell membrane (confocal, FITC) [2]: could not bind to the AdipoRs specifically
- lipid droplets accumulation caused by PA (Oil Red O) (HepG2 cells): little prevention of palmitic acid induced lipid droplets

- time for which plasma concentrations were measurable ([3]; SD rats, after intravenous administration, ADP355 1.0 mg/kg): 45 min
- half-life ([3]; SD rats, iv, authors' response to reviewers): 6 min
- AUC(0-inf) [3, 8]: 134 ± 19.9 ng·h/mL
- AUC(0-t) [3, 8]: 134 ± 19.9 ng·h/mL
- MRT [3, 8]: 5.4 ± 0.6 min
- clearance [3, 8]: 126 mL/min/kg
- Vd ([3]; Sprague-Dawley, rat, male SD rats, single iv dose: JT003 0.5 mg/kg, ADP355 1.0 mg/kg, plasma, LC-MS/MS, non-compartmental, Mean ± SD, n = 3-6, read-out: V): 1.06 ± 0.21 L/kg
- t1/2 ([3]; male SD rats, single iv dose: JT003 0.5 mg/kg, ADP355 1.0 mg/kg, plasma, LC-MS/MS, non-compartmental, Mean ± SD, n = 3-6 (n = 3 per group)): 6 ± 0.6 min and 6 min
Compound: CCC[C@H](NC(=O)[C@@H]1CCCN1C(=O)[C@@H](NC(=O)[C@H](N)CC(N)=O)[C@@H](C)CC)C(=O)N[C@@H](CC(C)C)C(=O)N[C@@H](Cc1ccc(O)cc1)C(=O)N[C@H](CO)C(=O)N[C@@H](Cc1ccccc1)C(=O)N[C@@H](C)C(=O)N[C@H](CO)C(N)=O [ADP355] (H-[dN]IP[Nva]LY[dS]FA[dS]-NH2; N-terminus and C-terminus assumed)
- inflammation, necrosis and fibrosis area (HE and sirius red staining) [4]: not notably raised
- lipid droplets accumulation caused by PA (Oil Red O) (HepG2 cells): could be reduced
